Measurements reported in the CheMixHub viscosity set.
± gives the uncertainty stated by the source.

Experiment: xn = mol fraction of the nth substance listed

CS(C)=O + CO
Settings | viscosity [mPa·s]
298.15 K, 101 kPa, x1 = 0.2 | 0.705 ± 0.012
298.15 K, 101 kPa, x1 = 0.4 | 0.942 ± 0.016
298.15 K, 101 kPa, x1 = 0.6 | 1.212 ± 0.021
298.15 K, 101 kPa, x1 = 0.8 | 1.581 ± 0.026
298.15 K, 101.3 kPa, x1 = 0.0439 | 0.583 ± 0.031
298.15 K, 101.3 kPa, x1 = 0.093 | 0.616 ± 0.033
298.15 K, 101.3 kPa, x1 = 0.1279 | 0.642 ± 0.034
298.15 K, 101.3 kPa, x1 = 0.2139 | 0.708 ± 0.037
298.15 K, 101.3 kPa, x1 = 0.2908 | 0.792 ± 0.04
298.15 K, 101.3 kPa, x1 = 0.3809 | 0.884 ± 0.044
298.15 K, 101.3 kPa, x1 = 0.4902 | 1.03 ± 0.051
298.15 K, 101.3 kPa, x1 = 0.6224 | 1.259 ± 0.06
298.15 K, 101.3 kPa, x1 = 0.7858 | 1.564 ± 0.073
298.15 K, 101.3 kPa, x1 = 0.8923 | 1.768 ± 0.082
298.15 K, 101.3 kPa, x1 = 0.9667 | 1.923 ± 0.089
298.15 K, 101.31 kPa, x1 = 0.1531 | 0.66 ± 0.017
298.15 K, 101.31 kPa, x1 = 0.1961 | 0.695 ± 0.018
298.15 K, 101.31 kPa, x1 = 0.2939 | 0.792 ± 0.021
298.15 K, 101.31 kPa, x1 = 0.4044 | 0.917 ± 0.024
298.15 K, 101.31 kPa, x1 = 0.533 | 1.064 ± 0.028
298.15 K, 101.31 kPa, x1 = 0.6303 | 1.201 ± 0.031
298.15 K, 101.31 kPa, x1 = 0.7167 | 1.379 ± 0.036
298.15 K, 101.31 kPa, x1 = 0.817 | 1.586 ± 0.041
298.15 K, 101.31 kPa, x1 = 0.8886 | 1.737 ± 0.045
299 K, 101 kPa, x1 = 0.0375 | 0.9137
299 K, 101 kPa, x1 = 0.119 | 1.048
299 K, 101 kPa, x1 = 0.2599 | 1.264
299 K, 101 kPa, x1 = 0.3691 | 1.384
299 K, 101 kPa, x1 = 0.4937 | 1.964
299 K, 101 kPa, x1 = 0.7172 | 2.348
303.15 K, 101.3 kPa, x1 = 0.0439 | 0.544 ± 0.03
303.15 K, 101.3 kPa, x1 = 0.093 | 0.566 ± 0.031
303.15 K, 101.3 kPa, x1 = 0.1279 | 0.583 ± 0.031
303.15 K, 101.3 kPa, x1 = 0.2139 | 0.661 ± 0.035
303.15 K, 101.3 kPa, x1 = 0.2908 | 0.741 ± 0.038
303.15 K, 101.3 kPa, x1 = 0.3809 | 0.82 ± 0.042
303.15 K, 101.3 kPa, x1 = 0.4902 | 0.937 ± 0.047
303.15 K, 101.3 kPa, x1 = 0.6224 | 1.11 ± 0.054
303.15 K, 101.3 kPa, x1 = 0.7858 | 1.368 ± 0.065
303.15 K, 101.3 kPa, x1 = 0.8923 | 1.573 ± 0.074
303.15 K, 101.3 kPa, x1 = 0.9667 | 1.713 ± 0.08
308.15 K, 101.31 kPa, x1 = 0.1531 | 0.581 ± 0.015
308.15 K, 101.31 kPa, x1 = 0.1961 | 0.612 ± 0.016
308.15 K, 101.31 kPa, x1 = 0.2939 | 0.694 ± 0.018
308.15 K, 101.31 kPa, x1 = 0.4044 | 0.798 ± 0.021
308.15 K, 101.31 kPa, x1 = 0.533 | 0.92 ± 0.024
308.15 K, 101.31 kPa, x1 = 0.6303 | 1.03 ± 0.027
308.15 K, 101.31 kPa, x1 = 0.817 | 1.336 ± 0.035
308.15 K, 101.31 kPa, x1 = 0.8886 | 1.454 ± 0.038
318.15 K, 101.31 kPa, x1 = 0.1531 | 0.514 ± 0.013
318.15 K, 101.31 kPa, x1 = 0.1961 | 0.544 ± 0.014
318.15 K, 101.31 kPa, x1 = 0.2939 | 0.613 ± 0.016
318.15 K, 101.31 kPa, x1 = 0.533 | 0.804 ± 0.021
318.15 K, 101.31 kPa, x1 = 0.6303 | 0.894 ± 0.023
318.15 K, 101.31 kPa, x1 = 0.817 | 1.141 ± 0.03
318.15 K, 101.31 kPa, x1 = 0.8886 | 1.194 ± 0.031

C[N+](C)(C)CCC[n+]1ccccc1.N#C[N-]C#N.N#C[N-]C#N + CO
viscosity [mPa·s], 100 kPa
Settings | 293.15 K | 303.15 K | 313.15 K
x1 = 0.2001 | – | 11.45 ± 1.2 | –
x1 = 0.8995 | 952.8 ± 130 | – | 198.5 ± 22

O=C(O)C=Cc1ccccc1 + CO
viscosity [mPa·s]
Settings | 308.15 K | 313.15 K | 318.15 K | 323.15 K
101 kPa, x1 = 0.075 | 0.8921 ± 0.0089 | – | – | 0.7246 ± 0.0075
101 kPa, x1 = 0.084 | 0.9758 ± 0.0098 | – | – | 0.7679 ± 0.008
101 kPa, x1 = 0.0887 | 1.014 ± 0.01 | – | – | 0.797 ± 0.0083
101 kPa, x1 = 0.0981 | 1.092 ± 0.011 | – | – | 0.846 ± 0.0089
101.33 kPa, x1 = 0.075 | 0.891 ± 0.024 | 0.8453 ± 0.022 | 0.7855 ± 0.021 | 0.7246 ± 0.019
101.33 kPa, x1 = 0.0981 | 1.092 ± 0.029 | 1.003 ± 0.027 | 0.9163 ± 0.024 | 0.846 ± 0.022
